In brackets after ≈: the same amount, converted by molar mass. Values belong to the compound of their own block, whether it stands above or below them.
Legend:
Test in all cases: ≥ marks a high value that may be exact or a test limit, other limits are often not marked, values filed in µg/mL are converted to µM
[1] = tested on: Escherichia coli ATCC 25922
[2] = tested on: Staphylococcus aureus NCTC 8325
[3] = tested on: Pseudomonas aeruginosa Ps4
[4] = tested on: Bacillus subtilis ATCC 23857
[5] = tested on: Bacillus subtilis CMCC 63501
[6] = tested on: Staphylococcus epidermidis ATCC 12228
[7] = tested on: Salmonella enterica subsp. enterica serovar Typhimurium C77-31
[8] = tested on: Pseudomonas aeruginosa ATCC 27853
[9] = tested on: Staphylococcus aureus ATCC 43300
[10] = tested on: Enterococcus faecalis ATCC 29212
[11] = tested on: Salmonella enterica subsp. enterica serovar Pullorum C79-13
[12] = tested on: Escherichia coli UB1005
[13] = tested on: Staphylococcus aureus ATCC 29213
[14] = tested on: Klebsiella pneumoniae ATCC 700603
[15] = tested on: Staphylococcus aureus ATCC 25923
[16] = tested on: Streptococcus mutans
[17] = tested on: Acinetobacter baumannii ATCC 19606

SMILES: CC[C@H](C)[C@H](NC(=O)[C@H](CCCCN)NC(=O)[C@H](C)NC(=O)[C@H](CC(C)C)NC(=O)[C@H](CC(=O)O)NC(=O)[C@@H](NC(=O)[C@H](C)N)C(C)C)C(=O)N[C@@H](C)C(=O)N[C@@H](CC(N)=O)C(=O)N[C@@H](CCCCN)C(=O)N[C@H](C(=O)N[C@@H](CC(C)C)C(=O)N[C@@H](CO)C(=O)N[C@@H](CO)C(=O)N[C@@H](CC(C)C)C(=O)N[C@@H](Cc1ccccc1)C(N)=O)C(C)C [AVDLAKIANKVLSSLF]
MIC [1]: 37.5 µM (≈ 63.3 µg/mL)
MIC [2]: ≥ 150 µM

SMILES: CC[C@H](C)[C@H](NC(=O)[C@H](CCCN=C(N)N)NC(=O)[C@@H](NC(=O)[C@H](CC(N)=O)NC(=O)[C@H](CCCN=C(N)N)NC(=O)[C@H](CCC(N)=O)NC(=O)[C@H](Cc1c[nH]c2ccccc12)NC(=O)[C@H](Cc1ccccc1)NC(=O)[C@@H](N)Cc1ccccc1)[C@@H](C)CC)C(=O)N[C@@H](CCCN=C(N)N)C(=O)N[C@@H](CCCN=C(N)N)C(N)=O [FFWQRNIRIRR]
MIC [3]: ≥ 157 µM

SMILES: CC[C@H](C)[C@H](NC(=O)[C@H](CCCN=C(N)N)NC(=O)[C@H](CCC(N)=O)NC(=O)[C@H](Cc1c[nH]c2ccccc12)NC(=O)[C@@H](N)Cc1ccccc1)C(=O)N[C@@H](CCCN=C(N)N)C(=O)N[C@@H](CCCCN)C(=O)N[C@H](C(=O)N[C@@H](CCCN=C(N)N)C(N)=O)C(C)C [FWQRIRKVR]
MIC [3]: ≥ 194 µM

SMILES: CC[C@H](C)[C@H](NC(=O)[C@H](CC(N)=O)NC(=O)[C@H](CCCN=C(N)N)NC(=O)[C@H](CCC(N)=O)NC(=O)[C@H](Cc1c[nH]c2ccccc12)NC(=O)[C@@H](N)Cc1ccccc1)C(=O)N[C@@H](CCCN=C(N)N)C(=O)N[C@@H](CCCCN)C(=O)N[C@@H](Cc1ccc(O)cc1)C(=O)N[C@@H](CCCN=C(N)N)C(N)=O [FWQRNIRKYR]
MIC [3]: ≥ 170 µM

SMILES: CC[C@H](C)[C@H](NC(=O)[C@H](CC(N)=O)NC(=O)[C@H](CCCN=C(N)N)NC(=O)[C@H](CCC(N)=O)NC(=O)[C@H](Cc1c[nH]c2ccccc12)NC(=O)[C@@H](N)Cc1ccccc1)C(=O)N[C@@H](CCCN=C(N)N)C(=O)N[C@@H](CO)C(=O)N[C@H](C(=O)N[C@@H](CCCN=C(N)N)C(N)=O)C(C)C [FWQRNIRSVR]
MIC [3]: ≥ 184 µM

SMILES: CC[C@H](C)[C@H](NC(=O)[C@H](Cc1c[nH]c2ccccc12)NC(=O)[C@H](CC(N)=O)NC(=O)[C@H](CCCN=C(N)N)NC(=O)[C@H](CCC(N)=O)NC(=O)[C@H](Cc1c[nH]c2ccccc12)NC(=O)[C@@H](N)Cc1ccccc1)C(=O)N[C@@H](CCCN=C(N)N)C(=O)N[C@@H](CCCN=C(N)N)C(N)=O [FWQRNWIRR]
MIC [3]: ≥ 184 µM

SMILES: CC[C@H](C)[C@H](NC(=O)[C@H](CC(N)=O)NC(=O)[C@H](CO)NC(=O)[C@H](CCC(N)=O)NC(=O)[C@H](Cc1c[nH]c2ccccc12)NC(=O)[C@@H](N)Cc1ccccc1)C(=O)N[C@@H](CCCN=C(N)N)C(=O)N[C@@H](CCCCN)C(=O)N[C@H](C(=O)N[C@@H](CCCN=C(N)N)C(N)=O)C(C)C [FWQSNIRKVR]
MIC [3]: ≥ 187 µM

SMILES: CC[C@H](C)[C@H](NC(=O)[C@H](CCCN=C(N)N)NC(=O)[C@H](Cc1c[nH]c2ccccc12)NC(=O)[C@H](CCCN=C(N)N)NC(=O)[C@H](Cc1c[nH]c2ccccc12)NC(=O)[C@@H](N)Cc1ccccc1)C(=O)N[C@@H](Cc1c[nH]c2ccccc12)C(=O)N[C@@H](CCCN=C(N)N)C(N)=O [FWRWRIWR]
MIC [3]: 23.9 µM (≈ 31.2 µg/mL)

SMILES: CC[C@H](C)[C@H](NC(=O)[C@H](CC(N)=O)NC(=O)[C@H](CCCN=C(N)N)NC(=O)[C@H](CCC(N)=O)NC(=O)[C@H](Cc1ccc(O)cc1)NC(=O)[C@@H](N)Cc1ccccc1)C(=O)N[C@@H](CCCN=C(N)N)C(=O)N[C@@H](CCCCN)C(=O)N[C@H](C(=O)N[C@@H](CCCN=C(N)N)C(N)=O)C(C)C [FYQRNIRKVR]
MIC [3]: ≥ 181 µM

SMILES: CC[C@H](C)[C@H](NC(=O)CNC(=O)[C@H](C)NC(=O)[C@@H](NC(=O)[C@H](C)NC(=O)CN)[C@@H](C)CC)C(=O)N[C@H](C(=O)N[C@H](C(=O)N[C@@H](CCCCN)C(=O)N[C@H](C(=O)N[C@@H](CCCCN)C(=O)N[C@@H](CCCCN)C(N)=O)[C@@H](C)CC)[C@@H](C)CC)[C@@H](C)CC [GAIAGIIIKIKK]
MIC [4]: ≥ 32 µM
MIC [1]: 64 µM (≈ 78.3 µg/mL)

SMILES: CC[C@H](C)[C@H](NC(=O)[C@H](CCCN=C(N)N)NC(=O)CNC(=O)[C@@H](NC(=O)[C@@H](NC(=O)[C@H](CCCN=C(N)N)NC(=O)[C@H](CCCCN)NC(=O)[C@H](Cc1ccccc1)NC(=O)[C@H](CCC(=O)O)NC(=O)[C@H](CCCCN)NC(=O)CN)[C@@H](C)CC)C(C)C)C(=O)N[C@@H](Cc1ccc(O)cc1)C(=O)N[C@@H](CCCN=C(N)N)C(=O)N[C@@H](CC(C)C)C(=O)N[C@@H](CS)C(=O)N[C@@H](CS)C(=O)N[C@@H](CCCN=C(N)N)C(N)=O [GKEFKRIVGRIYRLCCR]
MIC [5]: 8 µM (≈ 16.8 µg/mL)
MIC [6]: 16 µM (≈ 33.5 µg/mL)
MIC [7]: 8 µM (≈ 16.8 µg/mL)
MIC [8]: 16 µM (≈ 33.5 µg/mL)
MIC [9]: 8 µM (≈ 16.8 µg/mL)
MIC [1]: 4 µM (≈ 8.39 µg/mL)
MIC [10]: 16 µM (≈ 33.5 µg/mL)
MIC [11]: 8 µM (≈ 16.8 µg/mL)
MIC [12]: 4 µM (≈ 8.39 µg/mL)
MIC [13]: 16 µM (≈ 33.5 µg/mL)

The remaining lines, values ahead:

MIC [5]: 2 µM (≈ 3.83 µg/mL)
MIC [6]: 4 µM (≈ 7.67 µg/mL)
MIC [7]: 4 µM (≈ 7.67 µg/mL)
MIC [8]: 4 µM (≈ 7.67 µg/mL)
MIC [14]: 8 µM (≈ 15.3 µg/mL)
MIC [4]: 4 µM (≈ 7.67 µg/mL)
MIC [11]: 1 µM (≈ 1.92 µg/mL)
MIC [13]: 4 µM (≈ 7.67 µg/mL)
MIC [15]: 8 µM (≈ 15.3 µg/mL)
SMILES: CC[C@H](C)[C@H](N)C(=O)N[C@@H](CCCN=C(N)N)C(=O)N[C@H](C(=O)N[C@@H](CCCN=C(N)N)C(=O)N[C@@H](CS)C(=O)N[C@@H](CCCN=C(N)N)C(=O)N[C@@H](CCCN=C(N)N)C(=O)N[C@@H](CCCN=C(N)N)C(=O)N[C@@H](Cc1ccccc1)C(=O)N[C@@H](CS)C(=O)N[C@@H](CCCN=C(N)N)C(=O)N[C@H](C(=O)N[C@@H](CCCN=C(N)N)C(=O)N[C@H](C(N)=O)[C@@H](C)CC)[C@@H](C)CC)[C@@H](C)CC [IRIRCRRRFCRIRI]

MIC [16]: ≥ 88.8 µM
SMILES: CC[C@H](C)[C@H](NC(=O)[C@H](CCC(N)=O)NC(=O)[C@H](CC(N)=O)NC(=O)[C@H](Cc1ccccc1)NC(=O)[C@@H](NC(=O)[C@H](CCC(N)=O)NC(=O)[C@H](CC(C)C)NC(=O)[C@H](CC(C)C)NC(=O)[C@@H](N)CCCCN)[C@@H](C)O)C(=O)N[C@@H](Cc1ccccc1)C(=O)N[C@@H](CCCN=C(N)N)C(=O)O [KLLQTFNQIFR]

MIC [16]: ≥ 178 µM
SMILES: CC[C@H](C)[C@H](NC(=O)[C@@H](N)CCCN=C(N)N)C(=O)N[C@@H](CC(C)C)C(=O)N[C@@H](CCCCN)C(=O)N[C@@H](CCC(=O)O)C(=O)N[C@@H](CC(C)C)C(=O)N[C@@H](CCCCN)C(=O)N[C@@H](CC(N)=O)C(=O)N[C@@H](CC(C)C)C(=O)N[C@@H](Cc1ccccc1)C(=O)N[C@@H](CCCCN)C(=O)O [RILKELKNLFK]

MIC [16]: 14.6 µM (≈ 17 µg/mL)
SMILES: NC(=O)[C@H](Cc1ccccc1)NC(=O)[C@H](CCCN=C(N)N)NC(=O)[C@H](CCCN=C(N)N)NC(=O)[C@H](Cc1c[nH]c2ccccc12)NC(=O)[C@H](Cc1c[nH]c2ccccc12)NC(=O)[C@H](CCCN=C(N)N)NC(=O)[C@@H](N)CCCN=C(N)N [RRWWRRF]

MIC [16]: 3.76 µM (≈ 11.3 µg/mL)
SMILES: CC[C@H](C)[C@H](NC(=O)CNC(=O)CNC(=O)CNC(=O)[C@H](Cc1ccccc1)NC(=O)[C@H](Cc1c[nH]c2ccccc12)NC(=O)[C@H](CCCN=C(N)N)NC(=O)[C@H](Cc1c[nH]c2ccccc12)NC(=O)[C@H](CCCN=C(N)N)NC(=O)[C@H](Cc1c[nH]c2ccccc12)NC(=O)[C@@H](N)CCCN=C(N)N)C(=O)N[C@@H](CCCCN)C(=O)N[C@@H](CCC(N)=O)C(=O)N[C@@H](CC(C)C)C(=O)N[C@@H](CC(C)C)C(=O)N[C@@H](Cc1cnc[nH]1)C(=O)N[C@@H](Cc1ccccc1)C(=O)N[C@@H](Cc1ccccc1)C(=O)N[C@@H](CCC(N)=O)C(=O)N[C@@H](Cc1c[nH]c2ccccc12)C(=O)N[C@@H](CCCN=C(N)N)C(=O)N[C@@H](Cc1ccccc1)C(N)=O [RWRWRWFGGGIKQLLHFFQWRF]

MIC [6]: 32 µM (≈ 55.3 µg/mL)
MIC [8]: 8 µM (≈ 13.8 µg/mL)
MIC [14]: 32 µM (≈ 55.3 µg/mL)
MIC [4]: 4 µM (≈ 6.92 µg/mL)
MIC [17]: 32 µM (≈ 55.3 µg/mL)
MIC [1]: 32 µM (≈ 55.3 µg/mL)
MIC [10]: 32 µM (≈ 55.3 µg/mL)
MIC [15]: 8 µM (≈ 13.8 µg/mL)
SMILES: NC(=O)[C@H](Cc1c[nH]c2ccccc12)NC(=O)[C@H](Cc1c[nH]c2ccccc12)NC(=O)[C@H](CCCN=C(N)N)NC(=O)[C@H](CCCN=C(N)N)NC(=O)[C@H](Cc1c[nH]c2ccccc12)NC(=O)[C@H](CCCN=C(N)N)NC(=O)[C@H](CCCN=C(N)N)NC(=O)[C@H](Cc1c[nH]c2ccccc12)NC(=O)[C@H](Cc1c[nH]c2ccccc12)NC(=O)[C@@H](N)CCCN=C(N)N [RWWRRWRRWW]
